This note sets out measurements from patent US20250171461A1, “STIMULATOR OF INTERFERON GENES (STING) MODULATORS, AND COMPOSITIONS AND METHODS THEREOF” (Geode Therapeutics Inc., priority 2022, published 2025).

SMILES strings stand for the structures.

The assay has as its target T1, human HAQ STING isoform (hSTING HAQ) (Homo sapiens, UniProt Q86WV6, G230A/H232R/R293Q/R71H).
T1 construct: THP1 cells express the naturally occurring human HAQ STING isoform (hSTING HAQ); host or cells: THP1
Nature of the assay: IFN-β mRNA level in THP1 cells (qPCR, STING agonist cellular activity). The conditions noted are these: compound at 3.6 μM, 2 hrs, IFNβ expression normalized against GAPDH by the 2^-ΔΔCT method, DMSO = 1.0. It counts as cell-based. The procedure:
Cellular activity of STING agonists was determined by mRNA levels of IFN-β in THP1 (Otwo Biotech HTX1621) cell line. THP1 cells express the naturally occurring human HAQ STING isoform (hSTING HAQ), which responses to the activation of STING agonists.
THP1 cells were seeded into Falcon 12-well cell Culture Plate (Corning #353043) at 9×10^5 cells per well, in 1 ml complete culture medium (RPMI-1640, GIBCO #C1187500BT) containing 10% heat inactivated FBS (GIBCO #10099141C), 1% Pen-Strep (HyClone SV30010) and incubated at 37° ΔC, 5% CO2 overnight. On day 2, compound (final concentration at 3.6 μM) or DMSO (0.1%, Sigma Aldrich #8418) was added to THP1 cells and further incubated for 2 hrs min at 37° ΔC, 5% CO2. Cells were then collected for RNA extraction.
Total RNA was extracted with TRIzol reagent (Invitrogen #15596026) and […] was used to synthesize first-strand cDNA with Maxima First Strand cDNA Synthesis Kit (TAKARA #RR036A). Quantitative PCR was performed with Maxima SYBR Green qPCR Master Mix (ABI #4367659, USA). The primer sequences used were as follows: GAPDH (5′-[…]-3′, 5′-[…]-3′). INFP3 (5′-[…]-3′,5′-[…]-3′) Real-time PCR was performed on QuantStudio™ 5 Real-Time PCR System (Thermo Fisher). Relative expression levels of IFNβ gene were normalized against the level of GAPDH expression by the 2^−ΔΔCT method. Each PCR reaction was performed in triplicates.

T1 sequence (Q86WV6 whole entry R71H/G230A/H232R/R293Q, canonical isoform): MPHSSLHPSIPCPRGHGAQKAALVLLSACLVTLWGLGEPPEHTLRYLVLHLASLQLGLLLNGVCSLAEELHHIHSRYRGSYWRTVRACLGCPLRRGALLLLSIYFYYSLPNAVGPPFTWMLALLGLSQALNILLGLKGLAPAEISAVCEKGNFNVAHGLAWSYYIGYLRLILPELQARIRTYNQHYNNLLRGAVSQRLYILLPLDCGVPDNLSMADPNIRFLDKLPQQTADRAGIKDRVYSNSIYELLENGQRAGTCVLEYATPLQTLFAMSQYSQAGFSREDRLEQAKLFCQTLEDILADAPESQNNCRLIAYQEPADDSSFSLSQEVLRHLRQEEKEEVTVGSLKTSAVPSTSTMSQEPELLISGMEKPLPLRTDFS

As for `CC1COc2c(F)c(F)cc3c(=O)c(CN(Cc4ccncc4)[C@H]4CCCN(c5ccc(N)nc5)C4)cn1c23` (stereo partly drawn) [Compound 2, 6-((((S)-1-(6-aminopyridin-3-yl)piperidin-3-yl)(pyridin-4-ylmethyl)amino)methyl)-9,10-difluoro-3-methyl-2H-[1,4]oxazino[2,3,4-ij]quinolin-7(3H)-one], the “Relative mRNA INFβ/GAPDH THP 1” value is listed as 1261.9.
Regarding `Cc1cc(CN(Cc2cn3c4c(c(F)c(F)cc4c2=O)OCC3C)[C@H]2CCCN(c3ccc(N)nc3)C2)ccn1` (stereo partly drawn) [Compound 3, 6-((((S)-1-(6-aminopyridin-3-yl)piperidin-3-yl)((2-methylpyridin-4-yl)methyl)amino)methyl)-9,10-difluoro-3-methyl-2H-[1,4]oxazino[2,3,4-ij]quinolin-7(3H)-one], the “Relative mRNA INFβ/GAPDH THP 1” value is 1356.3.
Turning to `COc1cc(CN(Cc2cn3c4c(c(F)c(F)cc4c2=O)OCC3C)[C@H]2CCCN(c3ccc(N)nc3)C2)c(Cl)cn1` (stereo partly drawn) [Compound 4, 6-((((S)-1-(6-aminopyridin-3-yl)piperidin-3-yl)((5-chloro-2-methoxypyridin-4-yl)methyl)amino)methyl)-9,10-difluoro-3-methyl-2H-[1,4]oxazino[2,3,4-ij]quinolin-7(3H)-one], the “Relative mRNA INFβ/GAPDH THP 1” value amounted to 587.4.
The figure for `COc1cc(CN(Cc2cn3c4c(c(F)c(F)cc4c2=O)OC[C@H]3C)[C@H]2CCCN(c3ccc(N)nc3)C2)ccn1` [Compound 5, (R)-6-((((S)-1-(6-aminopyridin-3-yl)piperidin-3-yl)((2-methoxypyridin-4-yl)methyl)amino)methyl)-9,10-difluoro-3-methyl-2H-[1,4]oxazino[2,3,4-ij]quinolin-7(3H)-one] is 1627.5.
The figure for `COc1cc(CN(Cc2cn3c4c(c(F)c(F)cc4c2=O)OC[C@@H]3C)[C@H]2CCCN(c3ccc(N)nc3)C2)ccn1` [Compound 6, (S)-6-((((S)-1-(6-aminopyridin-3-yl)piperidin-3-yl)((2-methoxypyridin-4-yl)methyl)amino)methyl)-9,10-difluoro-3-methyl-2H-[1,4]oxazino[2,3,4-ij]quinolin-7(3H)-one] is 1595.2.
Regarding `COc1cc(CN(Cc2cn3c4c(c(F)c(F)cc4c2=O)OCC3C)[C@H]2CCCN(c3ccc(NC(C)=O)nc3)C2)ccn1` (stereo partly drawn) [Compound 7, N-(5-((3S)-3-(((9,10-difluoro-3-methyl-7-oxo-3,7-dihydro-2H-[1,4]oxazino[2,3,4-ij]quinolin-6-yl)methyl)((2-methoxypyridin-4-yl)methyl)amino)piperidin-1-yl)pyridin-2-yl)acetamide], the “Relative mRNA INFβ/GAPDH THP 1” value was 65.3.
The figure for `COc1cc(CCN(Cc2cn3c4c(c(F)c(F)cc4c2=O)OCC3C)[C@H]2CCCN(c3ccc(N)nc3)C2)ccn1` (stereo partly drawn) [Compound 8, 6-((((S)-1-(6-aminopyridin-3-yl)piperidin-3-yl)(2-(2-methoxypyridin-4-yl)ethyl)amino)methyl)-9,10-difluoro-3-methyl-2H-[1,4]oxazino[2,3,4-ij]quinolin-7(3H)-one] is 5.7; for `Cc1ccc(N2CCC[C@H](N(Cc3ccnc(C)c3)Cc3cn4c5c(c(F)c(F)cc5c3=O)OCC4C)C2)cn1` (stereo partly drawn) [Compound 9, 9,10-difluoro-3-methyl-6-((((S)-1-(6-methylpyridin-3-yl)piperidin-3-yl)((2-methylpyridin-4-yl)methyl)amino)methyl)-2H-[1,4]oxazino[2,3,4-ij]quinolin-7(3H)-one] it is 332.6.
As for `Cc1cc(CN(Cc2cn3c4c(c(F)c(F)cc4c2=O)OCC3C)[C@H]2CCCN(c3cccnc3)C2)ccn1` (stereo partly drawn) [Compound 10, 9,10-difluoro-3-methyl-6-((((2-methylpyridin-4-yl)methyl)((S)-1-(pyridin-3-yl)piperidin-3-yl)amino)methyl)-2H-[1,4]oxazino[2,3,4-ij]quinolin-7(3H)-one], the figure is 336.8; as for `Cc1ccc(N2CCC[C@H](N(Cc3ccnc(N)c3)Cc3cn4c5c(c(F)c(F)cc5c3=O)OCC4C)C2)cn1` (stereo partly drawn) [Compound 11, 6-((((2-aminopyridin-4-yl)methyl)((S)-1-(6-methylpyridin-3-yl)piperidin-3-yl)amino)methyl)-9,10-difluoro-3-methyl-2H-[1,4]oxazino[2,3,4-ij]quinolin-7(3H)-one], 65.6.
On to `Cc1cc(CN(Cc2cn3c4c(c(F)c(F)cc4c2=O)OCC3C)[C@H]2CCCN(c3ccc(C#N)nc3)C2)ccn1` (stereo partly drawn) [Compound 12, 5-((3S)-3-(((9,10-difluoro-3-methyl-7-oxo-3,7-dihydro-2H-[1,4]oxazino[2,3,4-ij]quinolin-6-yl)methyl)((2-methylpyridin-4-yl)methyl)amino)piperidin-1-yl)picolinonitrile], for which the “Relative mRNA INFβ/GAPDH THP 1” value is 14.1.
With `Cc1cc(CN(Cc2cn3c4c(c(F)c(F)cc4c2=O)OCC3C)[C@H]2CCCN(c3ccc(C(N)=O)nc3)C2)ccn1` (stereo partly drawn) [Compound 13, 5-((3S)-3-(((9,10-difluoro-3-methyl-7-oxo-3,7-dihydro-2H-[1,4]oxazino[2,3,4-ij]quinolin-6-yl)methyl)((2-methylpyridin-4-yl)methyl)amino)piperidin-1-yl)picolinamide], the “Relative mRNA INFβ/GAPDH THP 1” value came out at 3.6.
The figure for `Cc1cc(CN(Cc2cn3c4c(c(F)c(F)cc4c2=O)OCC3C)[C@H]2CCCN(c3cnccn3)C2)ccn1` (stereo partly drawn) [Compound 14, 9,10-difluoro-3-methyl-6-((((2-methylpyridin-4-yl)methyl)((S)-1-(pyrazin-2-yl)piperidin-3-yl)amino)methyl)-2H-[1,4]oxazino[2,3,4-ij]quinolin-7(3H)-one] is 3848.9; for `COc1cc(CN(Cc2cn3c4c(c(F)c(F)cc4c2=O)OCC3C)[C@H]2CCN(c3ccc(N)nc3)C2)ccn1` (stereo partly drawn) [Compound 15, 6-((((S)-1-(6-aminopyridin-3-yl)pyrrolidin-3-yl)((2-methoxypyridin-4-yl)methyl)amino)methyl)-9,10-difluoro-3-methyl-2H-[1,4]oxazino[2,3,4-ij]quinolin-7(3H)-one] it is 5.8; for `CNc1ccc(N2CCC[C@H](N(Cc3ccnc(OC)c3)Cc3cn4c5c(c(F)c(F)cc5c3=O)OCC4C)C2)cn1` (stereo partly drawn) [Compound 16, 9,10-difluoro-6-((((2-methoxypyridin-4-yl)methyl)((S)-1-(6-(methylamino)pyridin-3-yl)piperidin-3-yl)amino)methyl)-3-methyl-2H-[1,4]oxazino[2,3,4-ij]quinolin-7(3H)-one] it is 114.6.
The figure for `COc1cc(CN(Cc2cn3c4c(c(F)c(F)cc4c2=O)OCC3C)[C@H]2CCCN(c3ccc(N4CCCC4)nc3)C2)ccn1` (stereo partly drawn) [Compound 17, 9,10-difluoro-6-((((2-methoxypyridin-4-yl)methyl)((S)-1-(6-(pyrrolidin-1-yl)pyridin-3-yl)piperidin-3-yl)amino)methyl)-3-methyl-2H-[1,4]oxazino[2,3,4-ij]quinolin-7(3H)-one] is 6.7; for `COc1cc(CN(Cc2cn3c4c(c(F)c(F)cc4c2=O)OCC3C)[C@H]2CCCN(c3ccc(N4CCCC4=O)nc3)C2)ccn1` (stereo partly drawn) [Compound 18, 9,10-difluoro-6-((((2-methoxypyridin-4-yl)methyl)((S)-1-(6-(2-oxopyrrolidin-1-yl)pyridin-3-yl)piperidin-3-yl)amino)methyl)-3-methyl-2H-[1,4]oxazino[2,3,4-ij]quinolin-7(3H)-one] it is 4.8; for `COc1cc(CN(Cc2cn3c4c(c(F)c(F)cc4c2=O)OCC3C)[C@H]2CCCN(c3ccc(N(C)C)nc3)C2)ccn1` (stereo partly drawn) [Compound 19, 11-[[[(3S)-1-[6-(dimethylamino)-3-pyridyl]-3-piperidyl]-[(2-methoxy-4-pyridyl)methyl]amino]methyl]-6,7-difluoro-2-methyl-4-oxa-1-azatricyclo[7.3.1.05,13]trideca-5(13),6,8,11-tetraen-10-one] it is 2625.9.
For `COc1cc(CN(Cc2cn3c4c(c(F)c(F)cc4c2=O)OCC3C)[C@H]2CCCN(c3ccc(NCC4CC4)nc3)C2)ccn1` (stereo partly drawn) [Compound 20, 11-[[[(3S)-1-[6-(cyclopropylmethylamino)-3-pyridyl]-3-piperidyl]-[(2-methoxy-4-pyridyl)methyl]amino]methyl]-6,7-difluoro-2-methyl-4-oxa-1-azatricyclo[7.3.1.0^5,13]trideca-5(13),6,8,11-tetraen-10-one], the “Relative mRNA INFβ/GAPDH THP 1” value is given as 2142.1.
The figure for `COc1cc(CN(Cc2cn3c4c(c(F)c(F)cc4c2=O)OCC3C)[C@H]2CCCN(c3ccc(N(C)C4CC4)nc3)C2)ccn1` (stereo partly drawn) [Compound 21, 11-[[[(3S)-1-[6-[cyclopropyl(methyl)amino]-3-pyridyl]-3-piperidyl]-[(2-methoxy-4-pyridyl)methyl]amino]methyl]-6,7-difluoro-2-methyl-4-oxa-1-azatricyclo[7.3.1.0^5,13]trideca-5(13),6,8,11-tetraen-10-one] is 114.6.
